Test results from paper PMC11084256, “Penifuranone A: A Novel Alkaloid from the Mangrove Endophytic Fungus Penicillium crustosum SCNU-F0006” (International Journal of Molecular Sciences, 2024).
≈ marks a conversion by molar mass, not a printed value. Where two headings read alike, the source gives them in different places.

Legend:
Colletrichum litchi Tra = assay: Antifungal MIC, broth dilution method; type: cell-based, Colletrichum litchi Trag; details: 72 h, means from three parallel experiments; for MIC: read-out: minimum inhibitory concentration (MIC) against Colletrichum litchi Tra
Procedure: (§1) The bioactivity test screened the following four phytopathogenic microorganisms: Fusarium oxysporum; Penicillium italicum; Banana Colletotrichum gloeosporioides; and Colletrichum litchi Trag. The minimum inhibitory concentration (MIC) was determined using the broth dilution method, with a minor modification. Fungi were removed from the refrigerator and cultured dynamically at a constant temperature in Potato Dextrose Broth at room temperature for 72 h. The fungal liquid was diluted with broth to 0.5 McFarland turbidity. The sample was prepared into an initial solution of 1 mg/mL with dimethyl sulfoxide (DMSO), and the concentrations of the 1st to 12th wells of the 96-well plate sample group were made by the double dilution method (mg/mL): 1, 0.5, 0.25, 0.125, and 0.0625. Each plate also contained a positive control (ciprofloxacin or carbendazim), as well as a sterile control and growth control (containing broth and fungal liquid, no compound). The plates were incubated at 35 °C for 72 h. The use of 10 μL of a solution with a concentration of 11 mg/mL of Esazurin added to each well of a 96-well plate, followed by incubation at 37 °C for 3 h, allowed for the observation of color changes to determine the minimum inhibitory concentration (MIC) values.

Fusarium oxysporum = assay: Antifungal MIC, broth dilution method; type: cell-based; details: 72 h, means from three parallel experiments; for MIC: Fusarium oxysporum, read-out: minimum inhibitory concentration (MIC) against Fusarium oxysporum
Procedure: as §1

Penicillium italicum = assay: Antifungal MIC, broth dilution method; type: cell-based; details: 72 h, means from three parallel experiments; for MIC: Penicillium italicum, read-out: minimum inhibitory concentration (MIC) against Penicillium italicum
Procedure: as §1

[1] = test system: Banana Colletotrichum gloeosporioides; assay: Antifungal MIC, broth dilution method; type: cell-based; details: 72 h, means from three parallel experiments; for MIC: Colletotrichum gloeosporioides, read-out: minimum inhibitory concentration (MIC) against Banana Colletotrichum gloeosporioides
Procedure: as §1

[2] = MTT cell viability (cytotoxicity); type: cell-based; details: mouse; for IC50 at 24 h: MTT assay, read-out: cytotoxic effects on RAW 264.7 cells (IC50)
Procedure: (§2) The MTT method was utilized to assess cell viability. RAW 264.7 cells, at a concentration of 5 × 10^5 cells/mL, were plated in 96-well plates and exposed to lipopolysaccharide (LPS, at 1 μg/mL) in the presence or absence of the test compounds for a duration of 24 h. Following this, 100 μL of a 2 mg/mL MTT solution was introduced into each well, and after a 4 h incubation, the resulting formazan precipitates were dissolved in 100 μL of DMSO. The optical density was then determined at 490 nm using a microplate reader (Multiskan GO, Thermo Scientific, Waltham, MA, USA). The results were presented as the average percentage of cell viability relative to the untreated control group.

[3] = test system: Escherichia coli (ATCC 25922); assay: Antibacterial MIC, broth dilution method; type: cell-based; details: mean from three parallel experiments; for MIC: Escherichia coli, ATCC25922, 24 h, read-out: minimum inhibitory concentration (MIC) against Escherichia coli
Procedure: (§3) The bioactivity test screened the following four human pathogenic microorganisms: Pseudomonas aeruginosa (ATCC 9027); Salmonella typhimurium (ATCC 6539); Escherichia coli (ATCC 25922); and Staphylococcus aureus (ATCC 12598). The minimum inhibitory concentration was determined using the broth dilution method, with a minor modification. Bacteria were removed from the refrigerator and cultured dynamically at a constant temperature in a Mueller–Hinton Broth at room temperature for 24 h. The bacterial liquid was diluted with broth to 0.5 McFarland turbidity. The sample was prepared into an initial solution of 1 mg/mL with dimethyl sulfoxide (DMSO), and the concentrations of the 1st to 12th wells of the 96-well plate sample group were made by the double dilution method (mg/mL): 1, 0.5, 0.25, 0.125, and 0.0625. Each plate also contained a positive control (ciprofloxacin or carbendazim), as well as a sterile control and growth control (containing broth and bacterial liquid, no compound). The plates were incubated at 35 °C for 24 h. The use of 10 μL of a solution with a concentration of 11 mg/mL of Esazurin added to each well of a 96-well plate, followed by incubation at 37 °C for 3 h, allowed for the observation of color changes to determine the minimum inhibitory concentration (MIC) values.

[4] = test system: Staphylococcus aureus (ATCC 12598); assay: Antibacterial MIC, broth dilution method; type: cell-based; details: mean from three parallel experiments; for MIC: Staphylococcus aureus, ATCC12598, 24 h, read-out: minimum inhibitory concentration (MIC) against Staphylococcus aureus
Procedure: as §3

[5] = test system: Pseudomonas aeruginosa (ATCC 9027); assay: Antibacterial MIC, broth dilution method; type: cell-based; details: mean from three parallel experiments; for MIC: Pseudomonas aeruginosa, ATCC9027, 24 h, read-out: minimum inhibitory concentration (MIC) against Pseudomonas aeruginosa
Procedure: as §3

[6] = test system: Salmonella typhimurium (ATCC 6539); assay: Antibacterial MIC, broth dilution method; type: cell-based; details: 24 h, mean from three parallel experiments; for MIC: Salmonella enterica, read-out: minimum inhibitory concentration (MIC) against Salmonella typhimurium
Procedure: as §3

DPPH scavenging assay = details: 30 min at 37 °C in the dark, read-out: Radical Scavenging Activity (IC50)
Procedure: The assay for scavenging 1,1-Diphenyl-2-picrylhydrazyl radical 2,2-Diphenyl-1-(2,4,6-trinitrophenyl)hydrazyl (DPPH free radicals) was conducted following a previously established modified protocol. The DPPH was dissolved in ethanol to prepare a 0.5 mmol/L DPPH ethanolic solution (10 mL), which was stored away from light. Subsequently, 100 μL of the DPPH solution was added to each well of a 96-well plate. The sample was prepared into an initial solution of 200 μM with ethanol, and the concentrations of the 1st to 12th wells of the 96-well plate sample group were made by the double dilution method (μM): 200,100, 50, 25, and 12.5 μM. The reaction was monitored by measuring the absorbance at 490 nm using a microplate reader (iMark, Bio-Rad, Hercules, CA, USA) after shaking the reaction for 30 min at 37 °C in the dark. The DPPH radical scavenging activity was determined by a comparison of the absorbance of the samples and a blank control. Vitamin C was used as a positive control at the same concentration as the other samples.

RAW 264.7 cells = assay: MTT cell viability (cytotoxicity); type: cell-based; details: RAW 264.7 cells
Procedure: as §2

[7] = test system: NO production in LPS-stimulated RAW 264.7 cells; assay: Inhibition of LPS-stimulated NO production, Griess assay; type: cell-based; details: LPS (1 μg/mL)-stimulated RAW 264.7 cells
Procedure: Compounds 1–2 were evaluated for their inhibitory effects on LPS-stimulated NO production in RAW 264.7 cells using the Griess assay. The cell line RAW 264.7, obtained from the Cell Bank of the Chinese Academy of Sciences (CBCAS) in Shanghai, China, was propagated in Dulbecco’s Modified Eagle Medium (DMEM) supplemented with 10% Fetal Bovine Serum (FBS). In the logarithmic growth phase, the cells were digested with trypsin and inoculated into 96-well plates (1 × 10^5/well). After being cultured at 37 °C with 5% CO2 for 12 h, the cells were treated with DMEM containing different concentrations of compounds (0, 3.125, 6.25, 12.5, 25, 50, and 100 μM). Two hours later, the cells were treated with LPS at a concentration of […] (1 μg/mL) and incubated under standard cell culture conditions for a period of 24 h. Fifty microliters of cell supernatant was mixed with an equal volume of Griess reagent (1% anhydrous p-aminobenzene sulfonic acid and 0.1% N-1-naphthalene ethylenediamine hydrochloride in 5% concentrated phosphoric acid). Absorbance was measured with a microplate reader at 540 nm. The IC50 values were calculated using the SPSS 25.0 statistical software analysis package based on the inhibition rate of each group.

[8] = RAW 264.7 cells, MTT, evaluated with cell viability at 50 μM, read-out: Cytotoxicity (CC50)

| Compound | MIC (Colletrichum litchi Tra) [µg/mL] | MIC (Fusarium oxysporum) [µg/mL] | MIC (Penicillium italicum) [µg/mL] | MIC [1] [µg/mL] | IC50 at 24 h ([2]; RAW 264.7 cells) [µM] | CC50 at 24 h [2, 8] [µM] | MIC [3] [µg/mL] | MIC [4] [µg/mL] | MIC [5] [µg/mL] | MIC [6] [µg/mL] | IC50 (DPPH scavenging assay) [µM] | IC50 ([7]; Mus musculus, RAW264.7, 24 h) [µM] | also measured |
| --- | --- | --- | --- | --- | --- | --- | --- | --- | --- | --- | --- | --- | --- |
| COC(=O)Nc1nc2ccccc2[nH]1 [Carbendazim, reference compound] | < 30 | < 30 | < 30 | < 30 |  |  |  |  |  |  |  |  |  |
| O=c1[nH]c2ccccc2c(-c2ccccc2)c1O [Compound 4, 3-hydroxy-4-phenylquinolin-2(1H)-one] | 1000 (≈ 4210 µM) | 250 (≈ 1050 µM) | 250 (≈ 1050 µM) | > 1000 | < 50 | < 50 | > 1000 | 1000 (≈ 4210 µM) | 500 (≈ 2110 µM) | 1000 (≈ 4210 µM) | > 200 |  |  |
| 3-hydroxy-4-(3-hydroxyphenyl)quinolin-2(1H)-one [Compound 3] |  |  |  |  |  |  |  |  |  |  | > 200 |  | minimum inhibitory concentration (MIC) against Colletrichum litchi Tra (Colletrichum litchi Tra): 1000 µg/mL; IC50 (RAW 264.7 cells; MTT assay, read-out: cytotoxic effects on RAW 264.7 cells (IC50)): < 50 µM; CC50 (RAW 264.7 cells; MTT, evaluated with cell viability at 50 μM): < 50 µM; minimum inhibitory concentration (MIC) against Escherichia coli ([3]; 24 h): 1000 µg/mL; minimum inhibitory concentration (MIC) against Staphylococcus aureus ([4]; 24 h): >1000 µg/mL; minimum inhibitory concentration (MIC) against Pseudomonas aeruginosa ([5]; 24 h): 125 µg/mL; minimum inhibitory concentration (MIC) against Salmonella typhimurium [6]: 1000 µg/mL; minimum inhibitory concentration (MIC) against Fusarium oxysporum (Fusarium oxysporum): 250 µg/mL; minimum inhibitory concentration (MIC) against Penicillium italicum (Penicillium italicum): 500 µg/mL; minimum inhibitory concentration (MIC) against Banana Colletotrichum gloeosporioides [1]: >1000 µg/mL |
| COc1ccc2c(c1)c(CC(=O)O)c(C)n2C(=O)c1ccc(Cl)cc1 [Indomethacin, reference compound] |  |  |  |  |  |  |  |  |  |  |  | 35.8 ± 5.7 | CC50 at 24 h [2]: > 50 µM |
| CC1OC(=O)C(C2CCNC3=C2C(=O)OC3C)=C1O (stereo not shown) [Compound 1, penifuranone A] | 1000 (≈ 3770 µM) | 250 (≈ 942 µM) | 250 (≈ 942 µM) | > 1000 | > 50 | > 50 | 1000 (≈ 3770 µM) | > 1000 | 500 (≈ 1880 µM) | 1000 (≈ 3770 µM) | 180 | 42.2 | IC50 ([7]; 24 h): 42.2 ± 2.26 µM; melting point: 156.7 to 158.2 °C |
| O=C1O[C@H]([C@@H](O)CO)C(O)=C1O [Vitamin C, reference compound] |  |  |  |  |  |  |  |  |  |  | 68.4 |  |  |
| C[C@H]1OC(=O)C(CC2=C(O)[C@@H](C)OC2=O)=C1O [Compound 2, (+) - (5R, 5′R) - 3,3′-methylenebistetronic acid] | 500 (≈ 2080 µM) | 250 (≈ 1040 µM) | 250 (≈ 1040 µM) | > 1000 | > 50 | > 50 | 1000 (≈ 4160 µM) | > 1000 | 500 (≈ 2080 µM) | 1000 (≈ 4160 µM) | 120 | 37 ± 0.88 |  |
| O=C(O)c1cn(C2CC2)c2cc(N3CCNCC3)c(F)cc2c1=O [Ciprofloxacin, reference compound] |  |  |  |  |  |  | < 30 | < 30 | < 30 | < 30 |  |  |  |
| C[C@@H]1C[C@H]2[C@@H]3CCC4=CC(=O)C=C[C@]4(C)[C@@]3(F)[C@@H](O)C[C@]2(C)[C@@]1(O)C(=O)CO [Dexamethasone, reference compound] |  |  |  |  |  | > 50 |  |  |  |  |  | 58.2 ± 1.74 |  |
| CCCCCCCCCCCCCCCC(=O)OC1=C([C@@H]2CCN(C(=O)CCCCCCCCCCCCCCC)C3=C2C(=O)O[C@@H]3C)C(=O)O[C@@H]1C [Compound 1a] | 1000 (≈ 1350 µM) | 250 (≈ 337 µM) | 125 (≈ 168 µM) | > 1000 | < 50 | < 50 | > 1000 | > 1000 | 125 (≈ 168 µM) | 1000 (≈ 1350 µM) | > 200 |  | melting point: 76.6 to 77.2 °C |
